# Read-outs that look alike come from different tables or passages of the source.
# Legend:
# [1] = target: T1, cholera toxin B subunit (CTB) (Vibrio cholerae serotype O1, UniProt P01556); assay: biochemical; type: binding
# [2] = target: T2, tetanus toxin C fragment (TTC) (Clostridium tetani, UniProt P04958); assay: biochemical; type: binding
# [3] = target: T2, tetanus toxin C fragment (TTC); conditions: read-out: KD Reported; cited from earlier work
# mouse IgG (mouse) = assay: magnetic relaxation
# avidin = avidin (Gallus gallus, UniProt P02701); assay: bMR nanosensor competition assay, avidin-biotin; type: binding; conditions: control study with avidin bMR nanosensors
# avidin, sequence (P02701 25-152, species assumed): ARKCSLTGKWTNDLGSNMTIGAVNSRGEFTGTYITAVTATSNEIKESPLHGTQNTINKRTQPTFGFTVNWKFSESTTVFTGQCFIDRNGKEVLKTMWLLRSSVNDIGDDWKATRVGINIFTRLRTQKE
# Concanavalin A = Concanavalin A (Canavalia ensiformis, UniProt P02866); conditions: read-out: KD Reported; cited from earlier work
# [4] = target: T1, cholera toxin B subunit (CTB); conditions: read-out: KD Reported; cited from earlier work
# T2 sequence (P04958 865-1315 limits assumed): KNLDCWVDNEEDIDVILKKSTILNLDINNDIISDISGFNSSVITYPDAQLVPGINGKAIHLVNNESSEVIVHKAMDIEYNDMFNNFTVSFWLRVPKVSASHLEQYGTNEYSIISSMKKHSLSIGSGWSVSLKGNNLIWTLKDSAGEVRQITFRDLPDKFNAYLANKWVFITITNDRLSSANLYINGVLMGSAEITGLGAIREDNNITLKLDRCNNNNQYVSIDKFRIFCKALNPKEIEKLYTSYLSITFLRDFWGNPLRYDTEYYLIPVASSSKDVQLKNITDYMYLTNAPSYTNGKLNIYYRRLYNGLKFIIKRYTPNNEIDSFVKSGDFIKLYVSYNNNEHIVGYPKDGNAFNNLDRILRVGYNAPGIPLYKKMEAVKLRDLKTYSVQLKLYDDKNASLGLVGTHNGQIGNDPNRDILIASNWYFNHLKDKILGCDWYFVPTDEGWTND
# T1 sequence (P01556 22-124 limits assumed): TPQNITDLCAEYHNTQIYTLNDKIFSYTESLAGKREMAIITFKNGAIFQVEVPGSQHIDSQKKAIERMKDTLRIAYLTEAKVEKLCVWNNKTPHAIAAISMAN
molecule,measurement,setting,value
"OC[C@H]1O[C@@H](O[C@H]2[C@H](O)[C@@H](O)C(O)O[C@@H]2CO)[C@H](O)[C@@H](O)[C@H]1O (mixture of isomers) [Lactose, lactose]",Kd,[1],88 µM
"COc1cccc2c1C(=O)c1c(O)c3c(c(O)c1C2=O)C[C@@](O)(C(=O)CO)C[C@@H]3O[C@H]1C[C@H](N)[C@H](O)[C@H](C)O1 [Doxorubicin, doxorubicin]",Kd,[2],4.1 µM
same,Kd,[3],9.4 µM
"O=C[C@H](O)[C@@H](O)[C@@H](O)[C@H](O)CO [Galactose, galactose]",Kd,[1],3.5 µM
"OC[C@H]1OC(O)[C@H](O)[C@@H](O)[C@@H]1O (stereo partly drawn) [Glucose, glucose]",Kd,[1],36 µM
"O=C(O)c1cc(O)c2c(c1)C(=O)c1cccc(O)c1C2=O [Rhein, rhein]",Kd,[2],33.6 µM
"OC[C@H]1O[C@@H]2O[C@H]3[C@H](O)[C@@H](O)[C@@H](O[C@H]4[C@H](O)[C@@H](O)[C@@H](O[C@H]5[C@H](O)[C@@H](O)[C@@H](O[C@H]6[C@H](O)[C@@H](O)[C@@H](O[C@H]7[C@H](O)[C@@H](O)[C@@H](O[C@H]8[C@H](O)[C@@H](O)[C@@H](O[C@H]1[C@H](O)[C@H]2O)O[C@@H]8CO)O[C@@H]7CO)O[C@@H]6CO)O[C@@H]5CO)O[C@@H]4CO)O[C@@H]3CO [β-Cyclodextrin, β-cyclodextrin]",Kd,[1],3.6 µM
Protein G (from UniProt P06654 34-417) (natural protein),Kd,mouse IgG (mouse),0.4 pM
bovine serum albumin,changes in magnetic relaxation,avidin,nominal changes
dextran,Kd,Concanavalin A,0.09 µM
same,Kd,[1],4.9 µM
same,Kd,[4],14000 µM
